The values below come from US11440886B2, “Anti-inflammatory compound, and preparation and use thereof” (E-Nitiate Biopharmaceuticals (Hangzhou) Co., Ltd., priority 2018, dated 2022).

Broadly, the IC50 is the concentration at which inhibition is half-maximal.

human recombinant PDE4B1 enzyme, sequence (Q07343 whole entry): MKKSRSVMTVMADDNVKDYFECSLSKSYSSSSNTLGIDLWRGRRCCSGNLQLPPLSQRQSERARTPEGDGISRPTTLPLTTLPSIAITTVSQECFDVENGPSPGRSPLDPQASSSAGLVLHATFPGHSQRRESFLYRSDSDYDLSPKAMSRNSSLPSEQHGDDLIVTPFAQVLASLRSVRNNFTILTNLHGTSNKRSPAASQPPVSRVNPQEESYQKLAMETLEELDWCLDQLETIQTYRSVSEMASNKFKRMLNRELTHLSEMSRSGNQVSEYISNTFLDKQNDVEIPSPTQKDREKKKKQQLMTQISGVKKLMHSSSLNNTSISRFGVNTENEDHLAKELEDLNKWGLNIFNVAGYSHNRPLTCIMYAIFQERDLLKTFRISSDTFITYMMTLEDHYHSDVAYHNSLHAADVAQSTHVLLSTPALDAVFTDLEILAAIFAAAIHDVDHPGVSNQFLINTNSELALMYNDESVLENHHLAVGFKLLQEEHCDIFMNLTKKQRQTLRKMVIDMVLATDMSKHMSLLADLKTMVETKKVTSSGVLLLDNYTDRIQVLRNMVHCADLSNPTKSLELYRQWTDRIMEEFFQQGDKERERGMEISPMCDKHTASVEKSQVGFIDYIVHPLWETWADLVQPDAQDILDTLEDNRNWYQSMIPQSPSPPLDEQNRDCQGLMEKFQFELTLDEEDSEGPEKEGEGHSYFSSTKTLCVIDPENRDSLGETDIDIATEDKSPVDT

This test concerns the target human recombinant PDE4B1 enzyme (Homo sapiens (Human), UniProt Q07343). The test is described as follows: Inhibition of PDE4B1 activity by cAMP HTRF assay. The following applies: human recombinant PDE4B1, cAMP 40 nM, pH 7.4. Format: biochemical. On the procedure: Determination of the inhibition of the compounds on PDE4B1 activity by using cAMP HTRF® assay
The inhibitory effect of the compounds on human PDE4B1 enzyme activity was determined by quantifying the 5′-adenosine monophosphate (5′-AMP) formed from 3′,5′-cyclic adenosine monophosphate (cAMP).
The test compound or water (control) and human recombinant PDE4B1 enzyme (4.8 U) were mixed in a buffer solution (pH 7.4) consisting of 1× Hanks' balanced salt solution (HBSS), 5 mM HEPES, 3 mM MgCl2, and 0.1% BSA and incubated for 10 min. A cAMP enzyme substrate (final concentration 40 nM) was added, and the mixture was incubated at room temperature for 60 min. Then a fluorescent acceptor (Dye2 labeled with cAMP), a fluorescent donor (anti-cAMP antibody labeled with europium cryptate) and a non-specific phosphodiesterase inhibitor IBMX (3-isobutyl-1-methyl xanthine; final concentration 1 mM) were added. After 60 min, the fluorescence transfer related to the amount of remaining cAMP was measured on a microplate reader (Rubystar, BMG) at λex=337 nm, λem=620 nm and λem=665 nm. The enzyme activity is calculated from the ratio of the signals measured at 665 nm and 620 nm. The results are expressed as percent inhibition of the enzyme activity of the control (without PDE4 inhibitor). The enzyme was omitted for measurement of the basic control. The IC50 value (IC50=the concentration that caused the half-maximum inhibition of the specific activity of the control) is derived from dose-response measurements with eight different concentrations (n=2; repeated 2 times)
On to `COc1ccc(C(=O)Cn2c(C)cc(=O)cc2C)cc1OCSC` [Example 32, 1-(2-(3-methylthiomethoxy-4-methoxyphenyl)-2-oxoethyl)-2,6-dimethylpyridin-4(1H)-one], for which the IC50 came out at 13.9 nM.
With `COC(=O)/C(=C\n1c(C)cc(=O)cc1C)c1ccc(OC)c(OCC2CC2)c1` [Example 112, (Z)-methyl 2-(3-cyclopropylmethoxy-4-methoxyphenyl)-3-(2,6-dimethyl-4-carbonylpyridin-1(4H)-yl)-acrylate], the IC50 is 138 nM.
The value for `CC#CCOC(Cn1c(C)cc(=O)cc1C)c1ccc(OC)c(OCC2CC2)c1` (stereo not drawn) [Example 9, 1-(2-(but-2-yn-1-yloxy)-2-(3-cyclopropylmethoxy-4-methoxyphenyl)ethyl)-2,26-dimethylpyridin-4-(1H)-one] was 25 nM.
In the case of `COc1ccc(/C=C/n2c(C)cc(=O)cc2C)cc1O[C@H]1CCSC1` [Example 82, (S,E)-1-(3-(tetrahydrothiophen-3-yl)oxy-4-methoxystyryl)-2,6-dimethylpyridin-4(1H)-one], the IC50 is 7.5 nM.
The value for `CCCCOc1cc(C(=O)Cn2c(C)cc(=O)cc2C)ccc1OC` [Example 15, 1-(2(3-n-butoxy-4-methoxyphenyl)-2-oxoethyl)-2,6-dimethylpyridin-4(1H)-one] was 33 nM; that for `C#CCOc1cc(C(=O)Cn2c(C)cc(=O)cc2C)ccc1OC` [Example 28, 1-(2-(3-propargyloxy-4-methoxyphenyl)-2-oxoethyl)-2,6-dimethylpyridin-4(1H)-one] was 92 nM.
Consider `COc1ccc(C(=O)Cn2c(C)cc(=O)cc2C)cc1OCC1CCC1` [Example 22, 1-(2-(3-cyclobutylmethoxy-4-methoxyphenyl)-2-oxo)ethyl-2,6-dimethylpyridin-4(1H)-one], for which the IC50 amounted to 20 nM.
The value for `CO/N=C(/Cn1c(C)cc(=O)cc1C)c1ccc(OC)c(OCC2CC2)c1` [Example 40, (E)-1-(2-(3-cyclopropylmethoxy-4-methoxyphenyl)-2-(hydroxymethylimido)ethyl)-2,6-dimethylpyridin-4(1H)-one] was 6.8 nM; that for `CNC(=O)/C(=C\n1c(C)cc(=O)cc1C)c1ccc(OC)c(OCC2CC2)c1` [Example 108, (Z)-2-(3-cyclopropylmethoxy-4-methoxyphenyl)-3-(2,6-dimethyl-4-carbonylpyridin-1(4H)-yl)-N-methylacrylamide] was 760 nM.
The same measure for `CSCOc1cc(/C=C/n2c(C)cc(=O)cc2C)ccc1OC(F)F` [Example 90, (E)-1-(3-methylthiomethoxy-4-difluoromethoxy-styryl)-2,6-dimethylpyridin-4(1H)-one]: 3.8 nM.
In the case of `COc1ccc(/C=C/n2c(C)cc(=O)cc2C)cc1OCS(C)(=O)=O` [Example 76, (E)-1-(3-methylsulfonemethoxy-4-methoxystyryl)-2,6-dimethylpyridin-4(1H)-one], the IC50 came to 105 nM.
For `COc1cc(/C=C/n2c(C)cc(=O)cc2C)ccc1OC(F)F` [Example 89, (E)-1-(3-methoxy-4-difluoromethoxy-styryl)-2,6-dimethylpyridin-4(1H)-one], the IC50 was determined as 6.9 nM.
As for `COc1ccc(/C=C/n2c(C)cc(=O)cc2C)cc1OC(=O)C1CC1` [Example 72, (E)-1-((3-cyclopropylformyloxy-4-methoxy)-styryl)-2,6-dimethylpyridin-4(1H)-one], the IC50 was 3900 nM.
The same measure for `COc1ccc(/C=C/n2c(C)cc(=O)cc2C)cc1OCC(C)C` [Example 56, (E)-1-(3-iso-butoxy-4-methoxystyryl)-2,6-dimethylpyridin-4(1H)-one]: 16 nM.
On to `COc1ccc(/C=C/n2c(C)cc(=O)cc2C)cc1O[C@@H]1CC[S+]([O-])C1` (single isomer, unassigned) [Example 86-1], for which the IC50 stood at 310 nM.
For `CCCOc1cc(C(=O)Cn2c(C)cc(=O)cc2C)ccc1OC` [Example 13, 1-(2-(3-propoxy-4-methoxyphenyl)-2-oxoethyl)-2,6-dimethylpyridin-4(1H)-one], the IC50 turned out to be 4.9 nM.
For the compound `CC#C/C(=C\n1c(C)cc(=O)cc1C)c1ccc(OC)c(OCC2CC2)c1` [Example 105, (Z)-1-(2-(3-cyclopropylmethoxy-4-methoxyphenyl)pent-1-en-3-yn-1-yl)-2,6-dimethylpyridin-4(1H)-one], the IC50 turned out to be 3 nM.
In the case of `COc1ccc(/C(Cn2c(C)cc(=O)cc2C)=N/OCS(C)(=O)=O)cc1OCC1CC1` [Example 44, (Z)-1-(2-(3-cyclopropylmethoxy-4-methoxyphenyl)-2-(methylsulfonemethoxyimido)ethyl)-2,6-dimethylpyridin-4(1H)-one], the IC50 is 30 nM.
In the case of `C#CCOc1cc(/C=C/n2c(C)cc(=O)cc2C)ccc1OC` [Example 66], the IC50 worked out at 270 nM.
`COc1ccc(/C(Cn2c(C)cc(=O)cc2C)=N\O)cc1OCC1CC1` [Example 38-2, (E)-1-(2-(3-cyclopropylmethoxy-4-methoxyphenyl)-2-(hydroxyimido)ethyl)-2,6-dimethylpyridin-4(1H)-one]: the IC50 is 71 nM.
The value for `COc1ccc(C(=O)Cn2c(C)cc(=O)cc2C)cc1OCCSC` [Example 35, 1-(2-(3-methylthioethoxy-4-methoxyphenyl)-2-oxoethyl)-2,6-dimethylpyridin-4(1H)-one] was 32 nM; that for `CC#CCOc1cc(C(=O)Cn2c(C)cc(=O)cc2C)ccc1OC` [Example 29, 1-(2-(3-(but-2-yn-1-yloxy)-4-methoxyphenyl)-2-oxoethyl)-2,6-dimethylpyridin-4(1H)-one] was 93 nM; that for `COc1ccc(/C=C/n2c(C)cc(=O)cc2C)cc1OC1CCC1` [Example 61, (E)-1-(3-cyclobutyloxy-4-methoxy-styryl)-2,6-dimethylpyridin-4(1H)-one] was 6.2 nM.
Turning to `CC#CCOc1cc(/C=C/n2c(C)cc(=O)cc2C)ccc1OC` [Example 67, (E)-1-(3-(but-2-yn-1-yloxy)-4-methoxystyryl)-2,6-dimethylpyridin-4(1H)-one], the IC50 came out at 170 nM.
`COc1ccc(C(=O)Cn2c(C)cc(=O)cc2C)cc1OC1COC1` [Example 30, 1-(2-(3-(oxacyclobutan-3-yl-oxy)-4-methoxyphenyl)-2-oxoethyl)-2,6-dimethylpyridin-4(1H)-one]: the IC50 came out at 116 nM.
Take `COc1ccc(C(=O)Cn2c(C)cc(=O)cc2C)cc1OC1CCC1` [Example 21, 1-(2-(3-cyclobutyloxy-4-methoxyphenyl)-2-oxoethyl)-2,6-dimethylpyridin-4(1H)-one]: the IC50 stood at 4.6 nM.
`COc1ccc(/C=C(\C(N)=O)n2c(C)cc(=O)cc2C)cc1OCC1CC1` [Example 117]: the IC50 turned out to be 3600 nM.
For `COc1ccc(/C=C/n2c(C)cc(=O)cc2C)cc1O[C@H]1CC[S+]([O-])C1` (single isomer, unassigned) [Example 83-1], the IC50 amounted to 550 nM.
For `COc1ccc(/C=C/n2c(C)cc(=O)cc2C)cc1OC[S+](C)[O-]` (stereo not drawn) [Example 75, (E)-1-(3-methylsulfoxidemethoxy-4-methoxystyryl)-2,6-dimethylpyridin-4(1H)-one], the IC50 worked out at 290 nM.
The same measure for `Cc1cc(=O)cc(C)n1/C=C/c1ccc(OC(F)F)c(OC2CCSC2)c1` (stereo not drawn) [Example 96, (E)-1-((3-(tetrahydrothiophen-3-yl)oxy-4-difluoromethoxy)-styryl)-2,6-dimethylpyridin-4(1H)-one]: 2.4 nM.
